Measurements published in patent publication US20220218736A1, “NEW THERAPY” (INDEX PHARMACEUTICALS AB, priority 2018, published 2022).
Oligonucleotides are written 5' to 3', each unit as a sugar letter and its base; * is a phosphorothioate linkage, no mark a phosphodiester; rarer units and linkages stand in square brackets, end groups in braces. Plain capitals give the bases only. d = 2'-deoxy (DNA)

What was measured:
[1] = test system: patient with ulcerative colitis refractory to steroids and immunosuppressive therapies; assay: Compassionate use program, patient p12; colitis activity index (CAI) course; format: in vivo, human
Source text: This example relates to unpublished experimental data that was collected as part of a compassionate use program. A diagnosis of ulcerative colitis was established based on clinical, endoscopic and histological features. Written consent was received for the patient and the treatment approved by the relevant local ethics committee.
The patient was a person who was first diagnosed with ulcerative colitis 5 years previously and who had become refractory to steroids and immunosuppressive therapies (GCS, infliximab and natural IFN-β). In the form of an experimental add-on therapy, relapses were treated for 4 years with natural Interferon-beta (Fiblaferon). […] A severe relapse in January 2010 was treated with high doses of steroids in combination with azathioprine and 5-ASA without success. […] The treatment with a high dose of steroid in combination with Infliximab had some effect in reducing the CAI score from 14 to 9 in March 2010. However, the subject was still in a very active state of the disease. […]
The patient received 3 doses of 30 mg cobitolimod diluted in 50 mL of sterile water at 4 week intervals as an add on to current therapies. Application of drug was performed during colonoscopy with the aid of a spraying catheter inserted through the colonoscopies biopsy channel and delivered approximately to the upper portion of the descending colon or to the transverse region.
Depicted is the colitis activity index [CAI] against the time in months. […] 2011 when the treating physician last contacted all the patients to follow-up on the treatments.

[2] = test system: chronic DSS-induced colitis; assay: Chronic DSS-induced mouse model of colitis; colon length and weight/length ratio; format: in vivo, C57BL/6 mice; conditions: Day 30; for colon-shortening effects of DSS (colon length): Days 4-28 every 4 days
Source text: The objective of this study was to test the efficacy of cobitolimod as a maintenance therapy in the chronic DSS-induced mouse model of colitis.
37 male C57BL/6 mice were enrolled in the chronic DSS-induced colitis study and housed for a stabilization period of 5 days prior to the study. All animals were housed in HEPA-ventilated cages with sani-chips bedding. Domes and sterile cotton scratch pads were provided for enrichment. Fluorescent lighting was provided on a 12-hour cycle. Temperature and humidity were monitored and recorded daily and maintained to 20-23° C. temperature, and 30-70% relative humidity. 2018S 18% protein rodent maintenance diet was provided ad libitum.
Cobitolimod was diluted in saline either to 125 μg/100μ1 (1.25 μg/μl, dose 1) or 500 μg/100 μl (5 μg/μl, dose 2) in the beginning of the experiment. The solution was aliquoted and kept at 4° C. for the duration of the experiment. At each administration day 100 μl was administered to the mice rectally. FTY-720 (S1P1 receptor inhibitor) was dissolved in dH2O and served as positive control. For a dose of 1 mg/kg, using an average body weight of 30 grams, the compound was prepared and 100 μL orally dosed daily to each animal.
9 week old mice received 2% DSS dissolved into autoclaved water ad libitum (Group 2-5, n=8 each per group) for 5 days, and were switched to autoclaved drinking water for the next five days. This cycle was repeated, alternating between DSS treatment and autoclaved water, every five days for a duration of 30 days in total. During each 5-Day DSS treatment phase, fresh 2% DSS was provided on the third day of the five-day cycle. Group 1 (n=5) served as a control (naïve mice) that received only autoclaved water ad libitum throughout the study. On Day 4, mice in Group 3 (n=8) were orally dosed with FTY-720 as positive control (Group 3, n=8) and continued daily dose until end of the study. Also starting on Study Day 4, animals were dosed with Vehicle (Group 2, […]), or with two different doses of cobitolimod (Group 4 and Group 5, n=8 per group) intrarectally. […] Groups 2, 4, and 5 were dosed again on Days 8, 12, 16, 20, 24, and 28.
Body weight, stool consistency, stool blood, body condition score, and physical health were recorded on dosing days, and two days after each dosing day from at Day 0 through termination on Study Day 30. […] Animals that lost greater than 20% of their pre-treatment body weight were monitored and fed diet/hydro gel for 72 hrs. No animals were terminated due to prolonged body weight loss, or signs of pain and distress due to disease.
The study was terminated on Day 30, and necropsy was performed on all animals. Spleens were weighed and then discarded. Colon length and weight was recorded, and the weight/length ratio calculated for each animal. […]

[3] = test system: patients with moderate-to-severe active UC; assay: Randomized, double-blind, placebo-controlled clinical trial of cobitolimod; symptomatic remission; format: in vivo, human
Procedure: In this randomized, double-blind, placebo-controlled trial, 131 patients with moderate-to-severe active UC were randomized to receive two single doses of the oligonucleotide cobitolimod [30 mg] or placebo administered topically during lower GI endoscopy at baseline and Week 4. The primary endpoint was clinical remission, defined as Clinical Activity (Rachmilewitz) Index [CAI]≤4, at Week 12. Secondary endpoints included mucosal healing and symptomatic remission of key patient-reported outcomes [absence of blood in stool and weekly stool frequency <35].
Eligible patients were adults with moderate to severely active ulcerative colitis with a Clinical Activity Index [CAI] of ≥9 and an endoscopic Mayo score of ≥2, despite treatment with glucocorticosteroids [GCS] [prednisolone] equivalent ≥10 mg/day] for ≥2 weeks prior to inclusion, and previously having failed or been intolerant to treatment with mesalazine ≥2.4 g/day for ≥4 weeks, GCS with at least 0.75 mg/kg as a starting dose, azathioprine or mercaptopurine for ≥3 months, and/or one adequate treatment course of a TNF-α inhibitor. Patients may have tried treatment with cyclosporine or tacrolimus before the trial. Four patients in the placebo group [9.3%] and 5 patients in the cobitolimod group [6.2%] had used cyclosporine prior to the study start, but not in the study.
During the trial, patients could be taking sulfasalazine, aminosalicylates, or thiopurines, and should be on oral GCS at stable doses. Concurrent therapies with cyclosporine, tacrolimus or TNF-α inhibitors during the trial or in the 4 weeks before enrolment, or antibiotics or non-steroidal anti-inflammatory drugs [NSAIDs] in the 2 weeks before enrolment were not permitted.
Eligible patients were randomized in a 2:1 ratio to receive administration of cobitolimod via endoscopy [30 mg] at Week 0 and 4, or matching placebo diluted in 50 mL of sterile water after adequate bowel cleaning for stool content. The application was done proximally to the site of mucosal inflammation, or in the transverse section of the colon in the event of extensive colitis, using a spray catheter during endoscopy. Patients were asked to remain recumbent for 2 h after administration. Patients were followed up with visits after 1, 4, 8, 12, 22, and 52 weeks. At Weeks 0, 4, and 12, patients underwent endoscopic evaluation and biopsies were taken from the most inflamed mucosal area. ICON [Texas, USA] produced the randomization code by a computer-generated procedure, which used the method of randomly permuted blocks. Oral GCS treatment was mandatory at a stable daily dose of >10 mg initiated at least 2 weeks prior to inclusion. Steroid tapering was done to a standard tapering schedule according to European Crohn's and Colitis Organisation [ECCO] guidelines when the patient had reached clinical remission, the earliest at Week 12.
The primary endpoint was induction of clinical remission at Week 12, defined as a CAI score of ≤4. […] Secondary endpoints included mucosal healing [endoscopic Mayo sub-score ≤1, endoscopies not centrally read]; clinical remission at Weeks 1, 4, 8, 22 and 52; clinical remission and mucosal healing; symptomatic remission [defined as absence of blood in stool and weekly stool frequency of <35]; histological Geboes score at Week 4 and 12 as assessed by a single trial histopathologist; time to colectomy; and quality of life based on the inflammatory bowel disease questionnaire [IBDQ] and the 36-item short-form survey [SF36] score. Post hoc, the combined score for subjects who achieved both symptomatic remission and mucosal healing was defined.

[4] = second multi-dose regime, until March 2011

**Q.** Which “CAI score after treatment” value ([1]; high dose of steroid in combination with Infliximab, reduced from 14, March 2010) does the source give for “Infliximab: TNF-α inhibitor approved for the treatment of moderate to severe ulcerative colitis [reference compound]” here?
**A.** Its value is 9.

**Q.** What about the “adverse event after treatment” value ([1]; one dose at the end of January, event in February 2010) of the same substance?
**A.** The value was “severe salmonellosis with septicemia”.

**Q.** For “5′-G*G*A*ACAGTTCGTCCAT*G*G*C-3′ (SEQ ID NO:1) (DNA dG*dG*dA*dAdCdAdGdTdTdCdGdTdCdCdAdT*dG*dG*dC) [cobitolimod]”, which “colon-shortening effects of DSS (colon length)” value ([2]; 125 μg intrarectally) is on record?
**A.** The value was “significantly reduced”.

**Q.** What about the colonic weight/length ratio ([2]; 125 μg intrarectally) of the same substance?
**A.** Its colonic weight/length ratio is “decreased”.

**Q.** What about the “colon-shortening effects of DSS (colon length)” value ([2]; 500 μg intrarectally) of the same substance?
**A.** The value was “reduced”.

**Q.** And the colonic weight/length ratio ([2]; 500 μg intrarectally)?
**A.** Its colonic weight/length ratio is “decreased”.

**Q.** And the “delta between active drug and placebo, symptomatic remission” value (shortened to “delta between active drug and placebo”) ([3]; week 4)?
**A.** The value was 18.1%.

**Q.** What about the “percentage of patients in symptomatic remission” value ([3]; week 4, 30 mg at week 0, topically during endoscopy) of the same substance?
**A.** Its value is 32.1%.

**Q.** And the “delta between active drug and placebo” value ([3]; week 8)?
**A.** Its value is 16.8%.

**Q.** And the “percentage of patients in symptomatic remission” value ([3]; week 8, 30 mg at weeks 0 and 4)?
**A.** Its value is 28.4%.

**Q.** And the “decrease in percentage of patients in remission” value ([3]; week 8 as compared to week 4)?
**A.** Its value is 3.7%.

**Q.** And the “delta between active drug and placebo” value ([3]; week 12)?
**A.** Its value is 11.8%.

**Q.** And the “percentage of patients in symptomatic remission” value ([3]; week 12, 30 mg at weeks 0 and 4, no dose at week 8)?
**A.** The value was 23.5%.

**Q.** And the “decrease in percentage of patients in remission” value ([3]; week 12 as compared to week 8)?
**A.** The value was 4.9%.

**Q.** And the “time patient kept in remission by repeat dosing” value ([1]; first multi-dose regime (May, June and July))?
**A.** Its value is 3 months.

**Q.** What about the “time complete clinical remission was further maintained” value ([1]; first multi-dose regime, after week 4, with last dose and steroid tapering) of the same substance?
**A.** The value was “two”.

**Q.** And the “drop in the CAI score” value ([1]; one week after first 30 mg dose, add-on to current therapies)?
**A.** The value was 4 points.

**Q.** What about the “time to clinical remission” value ([1]; second multi-dose regime started 25 Aug. 2010) of the same substance?
**A.** Its value is at most 4 weeks.

**Q.** What about the “time complete clinical remission was maintained” value [1, 4] of the same substance?
**A.** The value was 5 months.

**Q.** And the “time patient kept in remission by repeat dosing” value [1, 4]?
**A.** The value was “over five”.

**Q.** What about the remission status ([1]; week 4 of first multi-dose regime, with continued steroid tapering) of the same substance?
**A.** The remission status was “complete remission”.

**Q.** And the remission status ([1]; week 8 of second multi-dose regime)?
**A.** Its remission status is “complete clinical remission”.
